Results on one compound are retold here after US20110195845A1, “Constructs for Expressing Herbicide Tolerance Genes, Related Plants, and Related Trait Combinations” (Dow AgroSciences LLC, priority 2008, published 2011).

The subject of assay [1] is NT-1 tobacco suspension cells treated with DSM-2 (v2) (pDAB3778). The assay can be described thus: NT-1 tobacco cell transformation, selection on bialaphos or glufosinate ammonium. In kind it is cell-based. The following applies: for Transformation Frequency on 10 mg/L Bialaphos following PCR Verification: % of selection plates with at least one PCR positive isolate. On the procedure:
(§1) Four days prior to transformation, a 1 week old NT-1 tobacco suspension, which was being subcultured every 7 days, was subcultured to fresh medium by adding 2 ml of the NT-1 culture or 1 ml of packed cells into 40 ml NT-1 B media. The subcultured suspension was maintained in the dark at 25±1° C. on a shaker at 125 rpm.
(§2) A 50% glycerol stock of Agrobacterium tumefaciens [strain LBA4404] harboring a binary vector of interest was used to initiate a liquid overnight culture by adding 20, 100, or 500 μl to 30 ml YEP liquid (10 g/L yeast extract, 10 g/L Peptone, 5 g/L NaCl, 0-10 g/L Sucrose) containing 50-100 mg/L spectinomycin. The bacterial culture was incubated in the dark at 28° C. in an incubator shaker at 150-250 rpm until the OD600 was 1.5+0.2. This took approximately 18-20 hrs.
For each vector tested, 20-70 mL of 4-day old suspension cells were transferred into a sterile vessel, to which 500-1750 μl of Agrobacterium suspension at the proper OD was added. To ensure a uniform mixture was achieved, the cells were pipetted up and down 5 times with a 10 ml wide-bore pipet. The uniform suspension was then drawn up into a 25 ml barrel of a repeat pipetter and 250 μl of the suspension was dispensed per well into 24-well plates, continuing until the suspension was exhausted. The well plates were wrapped in parafilm and cultured in the dark at 25±1° C. without shaking for a 3 day co-cultivation.
Following the co-cultivation, all excess liquid was removed from the individual wells with a 1 mL pipet tip, and remaining cells were resuspended in 1 ml NTC liquid (NT-1 B medium containing 500 mg/L carbenicillin, added after autoclaving). The contents of an individual well were dispersed across the entire surface of 100×25 mm selection plates using disposable transfer pipets. Selection media consisted of NTC media solidified with 8 g/l TC agar supplemented with 7.5 to 15 mg/L bialaphos or technical grade glufosinate ammonium, added after autoclaving. All selection plates, left unwrapped, were maintained in the dark at 28° C.
Putative transformants appeared as small clusters of callus on a background of dead, non-transformed cells. Calli were isolated approximately 2-6 weeks post-transformation. Each callus isolate was transferred to its own 60×20 mm plate containing the same selection medium and allowed to grow for approximately 2 weeks before being submitted for analysis.

In assay [2] the test system is NT-1 tobacco suspension cells treated with PAT (pDAB3779). The assay can be described thus: NT-1 tobacco cell transformation, selection on bialaphos. It counts as cell-based. The following applies: % of selection plates with at least one PCR positive isolate. The procedure:
as §1, §2
For each vector tested, 20-70 mL of 4-day old suspension cells were transferred into a sterile vessel, to which 500-1750 μl of Agrobacterium suspension at the proper OD was added. To ensure a uniform mixture was achieved, the cells were pipetted up and down 5 times with a 10 ml wide-bore pipet. The uniform suspension was then drawn up into a 25 ml barrel of a repeat pipetter and 250 μl of the suspension was dispensed per well into 24-well plates, continuing until the suspension was exhausted. […]

`C[C@H](NC(=O)[C@H](C)NC(=O)[C@@H](N)CCP(C)(=O)O)C(=O)O` [Bialaphos]: the “Transformation frequency (% of selection plates producing at least one callus) after coding region PCR” value in assay [1] (7.5 mg/L selection agent) is given as 38.9%; in assay [1] (10 mg/L selection agent), 44.4%; in assay [1] (12.5 mg/L selection agent), 38.9%; in assay [1] (15 mg/L selection agent), 22.2%. Also, the “Transformation Frequency on 10 mg/L Bialaphos following PCR Verification” value was found to be 79% in assay [1], 79% in assay [1] (listed as bialaphos), 100% in assay [2] and 100% in assay [2] (listed as bialaphos).
